Test results reported in patent US8119168B2, “Personal care compositions comprising a zinc containing material in an aqueous surfactant composition” (The Procter & Gamble Company, priority 2002, dated 2012).

Assay: Zincon metallochromic dye test for available Zn^2+ (visual color change orange to blue)
Type: physicochemical
Settings: ZCM ~30 mg/10 ml water, pH 7-11, binary visual assessment
From the text: Zinc-containing materials (ZCMs) differ with respect to how strongly the zinc ion (Zn^2+) is held by counterions in the crystal lattice. The benefits discussed herein depend upon having available Zn^2+. […] The response is a binary visual assessment of whether or not the color changes indicating zinc-binding.
The method is based on the commercial metallochromic dye zincon. Zincon changes from an orange color to blue upon binding zinc and provides the basis for detecting available Zn^2+:
The specific procedure involves making a stock solution of zincon in ethanol (˜50 mg/10 ml ethanol). The ZCM is then added to water (˜30 mg/10 ml water) and agitated (pH range should be 7-11). Three to four drops of zincon solution are then added to the ZCM in water, agitated and a visual assessment of color change made.

Molecule | available Zn^2+ (zincon color change)
zinc histadine | have available zinc
CC(=O)[O-].CC(=O)[O-].[Zn+2] [zinc acetate] | have available zinc
N=C(N)NCCC[C@H](N)C(=O)O.[Zn] [zinc arginine] | have available zinc
zinc hexaborate | have available zinc
[Cl-].[Cl-].[Zn+2] [zinc chloride] | have available zinc
zinc phytate | not having available Zn^2+
zinc stearate | have available zinc
CC(O)C(=O)[O-].CC(O)C(=O)[O-].[Zn+2] (stereo not drawn) [zinc lactate] | have available zinc
O=C([O-])CN(CCN(CC(=O)[O-])CC(=O)[O-])CC(=O)[O-].[Na+].[Na+].[Zn+2] [zinc EDTA] | not having available Zn^2+
O=C([O-])CC(O)(CC(=O)[O-])C(=O)[O-].O=C([O-])CC(O)(CC(=O)[O-])C(=O)[O-].[Zn+2].[Zn+2].[Zn+2] [zinc citrate] | have available zinc
O=C([O-])C(=O)[O-].[Zn+2] [zinc oxalate] | have available zinc
O=S(=O)([O-])[O-].[Zn+2] [zinc sulfate] | have available zinc
[OH-].[OH-].[Zn+2] [zinc hydroxide] | have available zinc
OCC(O)CO.[Zn] [zinc monoglycerolate] | have available zinc
[O]=[Zn] [Zinc Oxide] | have available zinc

Assay: Relative zinc lability by xylenol orange (XO) color change, absorbance at 572 nm
Type: physicochemical
Settings: 6% sodium lauryl sulfate
Description: Zinc lability is a measure of the chemical availability of zinc ion. […] The use of partially soluble forms of zinc salts and/or incorporation in a matrix with potential complexants generally lowers the zinc lability substantially below the defined 100% maximum.
Zinc lability is assessed by combining a diluted zinc-containing solution or dispersion with the metallochromic dye xylenol orange (XO) and measurement of the degree of color change under specified conditions. The magnitude of color formation is proportional to the level of labile zinc. The procedure developed has been optimized for aqueous surfactant formulations but may be adapted to other physical product forms as well.
A spectrophotometer is used to quantify the color change at 572 nm, the wavelength of optimum color change for XO. The spectrophotometer is set to zero absorbance at 572 nm utilizing a product control as close in composition to the test product except excluding the potentially labile form of zinc. The control and test products are then treated identically as follows. A 50 μl product sample is dispensed into a jar and 95 ml of deaerated, distilled water are added and stirred. 5 mL of a 23 mg/mL xylenol orange stock solution at pH 5.0 is pipetted into the sample jar; this is considered time 0. The pH is then adjusted to 5.50±0.01 using dilute HCl or NaOH. After 10.0 minutes, a portion of the sample is filtered (0.45μ) and the absorbance measured at 572 nm. The measured absorbance is then compared to a separately measured control to determine the relative zinc lability (zero TO 100%). The 100% lability control is prepared in a matrix similar to the test products but utilizing a soluble zinc material (such as zinc sulfate) incorporated at an equivalent level on a zinc basis. The absorbance of the 100% lability control is measured as above for the test materials.

Molecule | Relative Zinc Lability (%) Simple Surfactant System Alone [%]
O=C([O-])[O-].O=C([O-])[O-].[OH-].[OH-].[OH-].[OH-].[OH-].[OH-].[Zn+2].[Zn+2].[Zn+2].[Zn+2].[Zn+2] [Hydrozincite] | 37.0
[O]=[Zn] [Zinc Oxide] | 1.5

Same assay, conditions: 6% sodium lauryl sulfate plus sodium bicarbonate at 0.2% level

Molecule | Relative Zinc Lability (%) Simple Surfactant System Plus Sodium Bicarbonate [%]
[O]=[Zn] [Zinc Oxide] | 33.2
